In one assay the test system is HeLa. Nature of the assay: Ratio of GI50 for methyl methane sulphonate to drug in human HeLa B cells. The class given is functional.
In assay [1] the target is Poly [ADP-ribose] polymerase 1 (Homo sapiens, UniProt P09874). Briefly: Inhibition of PARP1.

The values that follow come from ChEMBL document CHEMBL1155090, “Novel alkoxybenzamide inhibitors of poly(ADP-ribose) polymerase” (Bioorg Med Chem Lett, 2008).

Chain of Poly [ADP-ribose] polymerase 1 (P09874 whole entry): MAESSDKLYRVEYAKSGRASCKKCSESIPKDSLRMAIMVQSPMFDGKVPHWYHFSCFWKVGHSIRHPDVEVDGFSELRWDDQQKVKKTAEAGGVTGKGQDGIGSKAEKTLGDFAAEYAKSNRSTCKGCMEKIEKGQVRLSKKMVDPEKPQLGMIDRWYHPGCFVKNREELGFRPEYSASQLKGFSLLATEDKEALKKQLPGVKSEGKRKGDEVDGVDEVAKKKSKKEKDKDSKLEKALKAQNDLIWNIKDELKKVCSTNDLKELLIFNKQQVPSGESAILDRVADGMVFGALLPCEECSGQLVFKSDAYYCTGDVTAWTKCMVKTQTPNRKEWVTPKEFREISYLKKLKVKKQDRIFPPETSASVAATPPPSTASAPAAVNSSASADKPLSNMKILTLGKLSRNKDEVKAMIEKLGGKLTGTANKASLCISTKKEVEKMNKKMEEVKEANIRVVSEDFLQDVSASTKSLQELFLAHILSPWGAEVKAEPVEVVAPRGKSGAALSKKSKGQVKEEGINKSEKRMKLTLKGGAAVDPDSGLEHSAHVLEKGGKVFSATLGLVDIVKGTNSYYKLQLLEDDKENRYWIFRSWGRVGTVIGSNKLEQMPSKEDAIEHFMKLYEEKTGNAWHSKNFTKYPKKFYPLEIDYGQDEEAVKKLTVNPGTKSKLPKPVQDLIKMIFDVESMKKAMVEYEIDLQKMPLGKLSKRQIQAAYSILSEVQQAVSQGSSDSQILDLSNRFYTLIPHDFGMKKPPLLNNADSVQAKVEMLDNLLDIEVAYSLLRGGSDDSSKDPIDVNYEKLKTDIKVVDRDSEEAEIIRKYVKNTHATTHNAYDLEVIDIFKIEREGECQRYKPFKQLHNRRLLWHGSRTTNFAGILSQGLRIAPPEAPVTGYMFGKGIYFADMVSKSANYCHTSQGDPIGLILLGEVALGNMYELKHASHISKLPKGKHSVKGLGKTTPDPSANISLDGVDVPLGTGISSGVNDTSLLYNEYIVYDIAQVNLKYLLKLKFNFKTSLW

As a reminder, the IC50 is the midpoint of a concentration-inhibition curve. On to `O=C(c1cccc(Cc2n[nH]c(=O)c3ccccc23)c1)N1CCNCC1`, for which the PF50 with HeLa was 2.7. In assay [1], this compound displayed an IC50 of 2 nM. For `NC(=O)c1ccccc1OCc1ccc(F)c(C(=O)N2CCNCC2)c1`, in that order: 1.4 and 61 nM. The like results for `NC(=O)c1cc(F)ccc1OCc1ccc(F)c(C(=O)N2CCNCC2)c1` were, in that order, 1.6 and 29 nM.

Regarding `NC(=O)c1cc(F)c(F)cc1OCc1ccc(F)c(C(=O)N2CCNCC2)c1`, the PF50 in the assay with HeLa came out at 1.08. Besides, half-maximal inhibition in assay [1] (IC50) was put at 240 nM. For the compound `CC(Oc1ccccc1)C(=O)N1CCN(C(=O)c2cc(CCOc3ccccc3C(N)=O)ccc2F)CC1` (stereo unspecified), the PF50 in the assay with HeLa worked out at 1.5. As to `NC(=O)c1c(F)ccc(F)c1OCc1ccc(F)c(C(=O)N2CCNCC2)c1`, the IC50 in assay [1] is above 10000 nM. Consider `CC(Oc1ccccc1)C(=O)N1CCN(C(=O)c2cc(COc3ccc(F)cc3C(N)=O)ccc2F)CC1` (stereo unspecified), for which the PF50 with HeLa is recorded as 1.12. In assay [1], the IC50 was determined as 14 nM. For `NC(=O)c1cc(F)cc(F)c1OCc1ccc(F)c(C(=O)N2CCNCC2)c1`, in that order: 0.9 and 1500 nM. The like results for `NC(=O)c1ccccc1OCc1ccc(F)c(C(=O)N2CCN(C(=O)C3CCCC3)CC2)c1` were, in that order, 1.96 and 24 nM.

Regarding `CC(Oc1ccccc1)C(=O)N1CCN(C(=O)c2cccc(Cc3n[nH]c(=O)c4ccccc34)c2)CC1` (stereo unspecified), the PF50 in the assay with HeLa is given as 29.7. The same compound returned an IC50 in assay [1] of 5 nM. For `NC(=O)c1ccccc1OCc1cccc(C(=O)N2CCNCC2)c1`, in that order: 1.3 and 18 nM. For `CC(Oc1ccccc1)C(=O)N1CCN(C(=O)c2cc(COc3ccccc3C(N)=O)ccc2F)CC1` (stereo unspecified), in that order: 3.7 and 50 nM. The like results for `NC(=O)c1ccccc1OCCc1cccc(C(=O)N2CCNCC2)c1` were, in that order, 1.06 and 970 nM.

For the compound `NC(=O)c1ccccc1OCc1cccc(C(=O)N2CCN(C(=O)C3CCCC3)CC2)c1`, the PF50 in the assay on HeLa is reported as 1.1. The compound also yielded an IC50 in assay [1] of 188 nM. Compound `NC(=O)c1ccccc1OCCc1cccc(C(=O)N2CCN(C(=O)C3CCCC3)CC2)c1` had an IC50 in assay [1] of 200 nM. That is a sub-micromolar value. As for `O=C(c1cccc(Cc2n[nH]c(=O)c3ccccc23)c1)N1CCN(C(=O)C2CCCC2)CC1`, in the assay with HeLa, the PF50 is 4.8. In assay [1], the IC50 came to 8 nM. With `NC(=O)c1ccc(F)cc1OCc1ccc(F)c(C(=O)N2CCNCC2)c1`, in the assay on HeLa, the PF50 is reported as 1.2. Moreover, half-maximal inhibition in assay [1] (IC50) was put at 250 nM.

`NC(=O)c1ccccc1OCCc1ccc(F)c(C(=O)N2CCNCC2)c1`: the IC50 in assay [1] is above 10000 nM. As to `NC(=O)c1cc(F)ccc1OCc1ccc(F)c(C(=O)N2CCN(C(=O)C3CCCC3)CC2)c1`, in the assay with HeLa, the PF50 turned out to be 1.5. For the compound `CC(Oc1ccccc1)C(=O)N1CCN(C(=O)c2cccc(COc3ccccc3C(N)=O)c2)CC1` (stereo unspecified), in the assay on HeLa, the PF50 stood at 2. Half-maximal inhibition in assay [1] (IC50) was put at 36 nM. As for `CC(Oc1ccccc1)C(=O)N1CCN(C(=O)c2cccc(CCOc3ccccc3C(N)=O)c2)CC1` (stereo unspecified), in assay [1], the IC50 was 200 nM.
